Results: the kinase profiling compilation of Christmann-Franck et al. (2016)

Key:
Experiment in all cases: radiometric filter-binding kinase assay
PAK4 (human) = PAK4 (human) (UniProt O96013)
LCK (mouse) = details: accession and sequence are those of the human protein
NUAK1 (human) = NUAK1 (human) (UniProt O60285)
CaMK1 (human) = CaMK1 (human) (UniProt Q14012)
NEK6 (human) = NEK6 (human) (UniProt Q9HC98)
MAPK14 (human) = MAPK14 (human) (UniProt Q16539)
PRKCZ (human) = PRKCZ (human) (UniProt Q05513)
MARK1 (human) = MARK1 (human) (UniProt Q9P0L2)
DAPK1 (human) = DAPK1 (human) (UniProt P53355)
MAPK11 (human) = MAPK11 (human) (UniProt Q15759)
IKBKE (human) = IKBKE (human) (UniProt Q14164)
MAP3K9 (human) = MAP3K9 (human) (UniProt P80192)
MAPK13 (human) = MAPK13 (human) (UniProt O15264)
TAOK1 (human) = TAOK1 (human) (UniProt Q7L7X3)
ERBB4 (human) = ERBB4 (human) (UniProt Q15303)
MAPKAPK5 (human) = MAPKAPK5 (human) (UniProt Q8IW41)
MAP2K6 (human) = MAP2K6 (human) (UniProt P52564)
DYRK1A (human) = DYRK1A (human) (UniProt Q13627)
EEF2K (human) = EEF2K (human) (UniProt O00418)
RPS6KA5 KD1 KD2 (human) = RPS6KA5 KD1 KD2 (human) (UniProt O75582)
HIPK1 (human) = HIPK1 (human) (UniProt Q86Z02)
EPHB1 (human) = EPHB1 (human) (UniProt P54762)
DYRK3 (human) = DYRK3 (human) (UniProt O43781)
DYRK2 (human) = DYRK2 (human) (UniProt Q92630)
ROCK2 (rat) = details: accession and sequence are those of the human protein
BTK (human) = BTK (human) (UniProt Q06187)
PAK6 (human) = PAK6 (human) (UniProt Q9NQU5)
PAK7 (human) = PAK7 (human) (UniProt Q9P286)
MARK3 (human) = MARK3 (human) (UniProt P27448)
EPHA2 (human) = EPHA2 (human) (UniProt P29317)
EPHB3 (human) = EPHB3 (human) (UniProt P54753)
[1] = system: AKT1 (human), P31749 [S473D]
HIPK3 (human) = HIPK3 (human) (UniProt Q9H422)
CSNK2A1 (human) = CSNK2A1 (human) (UniProt P68400)
MST4 (human) = MST4 (human) (UniProt Q9P289)

DYRK3 (human), sequence (O43781 whole entry, looked up): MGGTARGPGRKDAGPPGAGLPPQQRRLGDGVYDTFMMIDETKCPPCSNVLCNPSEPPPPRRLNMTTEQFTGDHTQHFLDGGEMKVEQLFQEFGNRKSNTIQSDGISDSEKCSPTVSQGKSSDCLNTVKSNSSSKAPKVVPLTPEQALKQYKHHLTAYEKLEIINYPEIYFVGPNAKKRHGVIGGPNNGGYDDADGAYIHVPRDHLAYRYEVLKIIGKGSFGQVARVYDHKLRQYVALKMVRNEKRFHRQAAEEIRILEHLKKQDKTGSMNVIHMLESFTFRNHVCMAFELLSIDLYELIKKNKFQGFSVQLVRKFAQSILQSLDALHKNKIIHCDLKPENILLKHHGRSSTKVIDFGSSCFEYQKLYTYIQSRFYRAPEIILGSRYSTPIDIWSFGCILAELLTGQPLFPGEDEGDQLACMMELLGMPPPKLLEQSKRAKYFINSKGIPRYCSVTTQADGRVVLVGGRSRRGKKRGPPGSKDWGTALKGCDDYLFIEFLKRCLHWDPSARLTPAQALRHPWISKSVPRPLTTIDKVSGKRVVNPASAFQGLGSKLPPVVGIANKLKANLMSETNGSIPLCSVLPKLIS
CSNK2A1 (human), sequence (P68400 whole entry, looked up): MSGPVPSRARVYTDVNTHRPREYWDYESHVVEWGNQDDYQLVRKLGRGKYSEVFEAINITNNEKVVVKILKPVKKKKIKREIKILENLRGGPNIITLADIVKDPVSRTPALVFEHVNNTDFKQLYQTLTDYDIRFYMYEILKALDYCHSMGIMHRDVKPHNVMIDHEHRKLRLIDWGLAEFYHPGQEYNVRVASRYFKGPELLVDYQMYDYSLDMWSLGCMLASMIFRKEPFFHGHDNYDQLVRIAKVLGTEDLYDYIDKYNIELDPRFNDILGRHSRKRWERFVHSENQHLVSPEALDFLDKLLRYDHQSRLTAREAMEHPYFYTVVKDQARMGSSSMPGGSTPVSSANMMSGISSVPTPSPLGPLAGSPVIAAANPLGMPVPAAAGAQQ
MAP3K9 (human), sequence (P80192 whole entry, looked up): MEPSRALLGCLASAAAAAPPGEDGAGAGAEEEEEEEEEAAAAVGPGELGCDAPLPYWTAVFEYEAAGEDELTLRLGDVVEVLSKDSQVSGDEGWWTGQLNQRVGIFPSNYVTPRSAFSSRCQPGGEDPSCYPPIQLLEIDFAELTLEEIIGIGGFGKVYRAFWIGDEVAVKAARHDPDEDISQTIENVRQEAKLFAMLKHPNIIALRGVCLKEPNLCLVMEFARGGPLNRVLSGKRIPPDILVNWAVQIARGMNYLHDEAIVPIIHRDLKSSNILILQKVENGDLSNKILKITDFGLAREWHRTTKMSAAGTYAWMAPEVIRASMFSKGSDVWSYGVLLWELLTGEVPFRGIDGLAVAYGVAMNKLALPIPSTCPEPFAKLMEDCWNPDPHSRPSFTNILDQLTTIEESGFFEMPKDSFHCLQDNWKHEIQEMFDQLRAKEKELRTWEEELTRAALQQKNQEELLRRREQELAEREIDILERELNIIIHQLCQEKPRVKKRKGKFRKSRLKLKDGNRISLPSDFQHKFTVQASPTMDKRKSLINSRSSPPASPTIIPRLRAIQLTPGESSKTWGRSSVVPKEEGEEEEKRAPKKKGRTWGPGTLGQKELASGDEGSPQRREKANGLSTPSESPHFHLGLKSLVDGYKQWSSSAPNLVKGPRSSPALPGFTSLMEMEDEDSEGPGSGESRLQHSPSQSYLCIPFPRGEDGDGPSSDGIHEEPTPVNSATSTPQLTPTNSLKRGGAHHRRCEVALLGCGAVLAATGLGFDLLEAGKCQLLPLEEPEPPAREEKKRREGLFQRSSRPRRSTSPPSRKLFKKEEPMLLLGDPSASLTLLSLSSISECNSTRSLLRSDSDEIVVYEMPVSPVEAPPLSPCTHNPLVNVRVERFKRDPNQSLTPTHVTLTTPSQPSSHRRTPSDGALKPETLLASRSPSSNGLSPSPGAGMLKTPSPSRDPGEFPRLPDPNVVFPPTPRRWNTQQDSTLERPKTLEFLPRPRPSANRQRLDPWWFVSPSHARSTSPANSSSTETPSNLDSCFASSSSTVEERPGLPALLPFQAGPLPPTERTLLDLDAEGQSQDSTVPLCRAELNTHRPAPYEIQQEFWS
MARK3 (human), sequence (P27448 whole entry, looked up): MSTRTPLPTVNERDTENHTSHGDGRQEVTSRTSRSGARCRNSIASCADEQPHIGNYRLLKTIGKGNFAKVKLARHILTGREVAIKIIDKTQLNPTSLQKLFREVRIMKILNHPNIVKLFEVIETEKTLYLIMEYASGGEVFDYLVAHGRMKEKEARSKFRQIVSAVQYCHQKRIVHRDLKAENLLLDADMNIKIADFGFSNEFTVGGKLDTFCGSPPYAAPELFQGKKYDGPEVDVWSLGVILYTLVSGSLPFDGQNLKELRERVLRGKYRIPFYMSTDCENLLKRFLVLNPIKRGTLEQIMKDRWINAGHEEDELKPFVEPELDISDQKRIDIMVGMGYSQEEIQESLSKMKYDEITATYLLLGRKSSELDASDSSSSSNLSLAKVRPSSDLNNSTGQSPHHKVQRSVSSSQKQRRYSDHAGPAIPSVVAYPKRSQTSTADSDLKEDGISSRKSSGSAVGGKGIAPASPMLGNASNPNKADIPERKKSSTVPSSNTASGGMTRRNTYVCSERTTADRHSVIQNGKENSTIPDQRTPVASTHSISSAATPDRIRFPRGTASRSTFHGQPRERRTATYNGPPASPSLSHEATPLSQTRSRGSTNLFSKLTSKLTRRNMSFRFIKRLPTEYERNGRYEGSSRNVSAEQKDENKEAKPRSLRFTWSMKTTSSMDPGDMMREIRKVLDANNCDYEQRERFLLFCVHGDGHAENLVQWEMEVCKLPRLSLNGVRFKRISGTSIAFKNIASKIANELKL
EPHA2 (human), sequence (P29317 whole entry, looked up): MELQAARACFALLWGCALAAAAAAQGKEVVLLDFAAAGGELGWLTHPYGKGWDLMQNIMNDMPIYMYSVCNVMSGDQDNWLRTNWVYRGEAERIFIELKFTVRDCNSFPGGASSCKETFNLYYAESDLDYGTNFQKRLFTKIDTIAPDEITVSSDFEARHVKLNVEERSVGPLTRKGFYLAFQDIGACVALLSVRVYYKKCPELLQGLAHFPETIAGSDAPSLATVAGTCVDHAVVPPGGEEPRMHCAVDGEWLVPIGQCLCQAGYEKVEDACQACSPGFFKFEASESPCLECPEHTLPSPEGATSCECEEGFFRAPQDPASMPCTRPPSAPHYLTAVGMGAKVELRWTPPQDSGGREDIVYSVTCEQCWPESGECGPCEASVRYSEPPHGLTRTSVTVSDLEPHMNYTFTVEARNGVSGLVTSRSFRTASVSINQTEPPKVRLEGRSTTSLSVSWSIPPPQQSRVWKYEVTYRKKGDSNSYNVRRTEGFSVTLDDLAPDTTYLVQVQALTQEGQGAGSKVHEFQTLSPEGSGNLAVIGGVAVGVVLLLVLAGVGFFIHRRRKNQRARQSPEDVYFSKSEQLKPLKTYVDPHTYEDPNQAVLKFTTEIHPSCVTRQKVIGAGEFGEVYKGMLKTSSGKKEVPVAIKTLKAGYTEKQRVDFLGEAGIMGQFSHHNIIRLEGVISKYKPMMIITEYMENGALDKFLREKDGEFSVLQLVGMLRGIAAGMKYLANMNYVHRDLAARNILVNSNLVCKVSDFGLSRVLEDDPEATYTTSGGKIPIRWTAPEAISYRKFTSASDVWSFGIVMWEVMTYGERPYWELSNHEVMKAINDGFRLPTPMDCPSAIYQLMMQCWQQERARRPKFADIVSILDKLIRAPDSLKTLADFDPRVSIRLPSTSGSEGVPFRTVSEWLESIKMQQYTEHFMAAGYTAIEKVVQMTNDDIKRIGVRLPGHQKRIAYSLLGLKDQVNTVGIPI
NUAK1 (human), sequence (O60285 whole entry, looked up): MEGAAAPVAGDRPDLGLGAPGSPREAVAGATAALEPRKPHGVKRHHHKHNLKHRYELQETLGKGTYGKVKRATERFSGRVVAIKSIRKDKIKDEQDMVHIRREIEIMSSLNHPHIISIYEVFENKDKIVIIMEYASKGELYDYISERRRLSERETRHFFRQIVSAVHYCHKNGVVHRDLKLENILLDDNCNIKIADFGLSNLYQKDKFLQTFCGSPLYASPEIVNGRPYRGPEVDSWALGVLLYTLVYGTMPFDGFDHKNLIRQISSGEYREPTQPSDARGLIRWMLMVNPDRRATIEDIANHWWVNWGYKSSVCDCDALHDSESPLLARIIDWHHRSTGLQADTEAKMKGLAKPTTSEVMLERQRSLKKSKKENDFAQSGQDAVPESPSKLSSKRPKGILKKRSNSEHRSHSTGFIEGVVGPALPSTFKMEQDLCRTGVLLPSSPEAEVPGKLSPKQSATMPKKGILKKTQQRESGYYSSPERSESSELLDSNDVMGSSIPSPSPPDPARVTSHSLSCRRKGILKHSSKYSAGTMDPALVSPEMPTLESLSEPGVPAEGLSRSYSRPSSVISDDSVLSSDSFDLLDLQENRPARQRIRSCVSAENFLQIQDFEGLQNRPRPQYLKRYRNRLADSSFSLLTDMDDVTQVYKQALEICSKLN
NEK6 (human), sequence (Q9HC98 whole entry, looked up): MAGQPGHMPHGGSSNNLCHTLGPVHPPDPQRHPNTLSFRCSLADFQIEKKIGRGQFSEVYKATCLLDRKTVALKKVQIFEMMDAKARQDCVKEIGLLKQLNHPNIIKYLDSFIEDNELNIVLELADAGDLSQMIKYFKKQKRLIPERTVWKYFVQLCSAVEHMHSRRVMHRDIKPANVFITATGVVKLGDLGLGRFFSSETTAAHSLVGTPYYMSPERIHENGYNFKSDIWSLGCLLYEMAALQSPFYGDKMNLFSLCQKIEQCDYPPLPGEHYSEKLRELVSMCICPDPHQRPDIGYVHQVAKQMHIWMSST

In the case of `COc1ccc(N(C(=O)Nc2c(C)cccc2C)c2cc(Nc3ccc(N4CCN(C)CC4)cc3)ncn2)c(OC)c1`, the residual activity (PAK4 (human); compound 0.01 µM) is reported as 116%, the residual activity (PAK4 (human); compound 0.1 µM) is reported as 97% and the residual activity (PAK4 (human); compound 1.0 µM) is reported as 94%. It also gave a residual activity (LCK (mouse); compound 0.01 µM) of 63%, a residual activity (LCK (mouse); compound 0.1 µM) of 54% and a residual activity (LCK (mouse); compound 1.0 µM) of 47%. It also gave a residual activity (NUAK1 (human); compound 0.01 µM) of 97%, a residual activity (NUAK1 (human); compound 0.1 µM) of 93% and a residual activity (NUAK1 (human); compound 1.0 µM) of 64%. For the same compound, the residual activity (CaMK1 (human); compound 0.01 µM) was 97%, the residual activity (CaMK1 (human); compound 0.1 µM) was 90% and the residual activity (CaMK1 (human); compound 1.0 µM) was 90%. It also gave a residual activity (NEK6 (human); compound 0.01 µM) of 102%, a residual activity (NEK6 (human); compound 0.1 µM) of 90% and a residual activity (NEK6 (human); compound 1.0 µM) of 91%. For the same compound, the residual activity (MAPK14 (human); compound 0.01 µM) was 121%, the residual activity (MAPK14 (human); compound 0.1 µM) was 79% and the residual activity (MAPK14 (human); compound 1.0 µM) was 26%. For the same compound, the residual activity (PRKCZ (human); compound 0.01 µM) was 97%, the residual activity (PRKCZ (human); compound 0.1 µM) was 104% and the residual activity (PRKCZ (human); compound 1.0 µM) was 102%. The residual activity (MARK1 (human); compound 0.01 µM) was 88%, the residual activity (MARK1 (human); compound 0.1 µM) was 87% and the residual activity (MARK1 (human); compound 1.0 µM) was 53%. For the same compound, the residual activity (DAPK1 (human); compound 0.1 µM) was 88%, the residual activity (DAPK1 (human); compound 1.0 µM) was 96% and the residual activity (MAPK11 (human); compound 0.01 µM) was 89%. For the same compound, the residual activity (MAPK11 (human); compound 0.1 µM) was 42%, the residual activity (MAPK11 (human); compound 1.0 µM) was 19% and the residual activity (IKBKE (human); compound 0.1 µM) was 94%. It also gave a residual activity (IKBKE (human); compound 1.0 µM) of 102%, a residual activity (MAP3K9 (human); compound 0.01 µM) of 101% and a residual activity (MAP3K9 (human); compound 0.1 µM) of 97%. It also gave a residual activity (MAP3K9 (human); compound 1.0 µM) of 42%, a residual activity (MAPK13 (human); compound 0.01 µM) of 102% and a residual activity (MAPK13 (human); compound 0.1 µM) of 97%. For the same compound, the residual activity (MAPK13 (human); compound 1.0 µM) was 98%, the residual activity (TAOK1 (human); compound 0.01 µM) was 85% and the residual activity (TAOK1 (human); compound 0.1 µM) was 69%. For the same compound, the residual activity (TAOK1 (human); compound 1.0 µM) was 33%, the residual activity (ERBB4 (human); compound 0.01 µM) was 90% and the residual activity (ERBB4 (human); compound 1.0 µM) was 18%. It also gave a residual activity (MAPKAPK5 (human); compound 0.01 µM) of 119%, a residual activity (MAPKAPK5 (human); compound 0.1 µM) of 115% and a residual activity (MAPKAPK5 (human); compound 1.0 µM) of 125%. It also gave a residual activity (MAP2K6 (human); compound 0.1 µM) of 101%, a residual activity (MAP2K6 (human); compound 1.0 µM) of 92% and a residual activity (DYRK1A (human); compound 0.01 µM) of 100%. For the same compound, the residual activity (DYRK1A (human); compound 0.1 µM) was 95%, the residual activity (DYRK1A (human); compound 1.0 µM) was 93% and the residual activity (EEF2K (human); compound 0.1 µM) was 108%. The residual activity (EEF2K (human); compound 1.0 µM) was 89%, the residual activity (RPS6KA5 KD1 KD2 (human); compound 0.01 µM) was 104% and the residual activity (RPS6KA5 KD1 KD2 (human); compound 0.1 µM) was 105%. The residual activity (HIPK1 (human); compound 0.01 µM) was 69%, the residual activity (HIPK1 (human); compound 0.1 µM) was 60% and the residual activity (HIPK1 (human); compound 1.0 µM) was 56%. For the same compound, the residual activity (EPHB1 (human); compound 0.01 µM) was 62%, the residual activity (EPHB1 (human); compound 0.1 µM) was 49% and the residual activity (EPHB1 (human); compound 1.0 µM) was 2%. It also gave a residual activity (DYRK3 (human); compound 0.01 µM) of 92%, a residual activity (DYRK3 (human); compound 0.1 µM) of 92% and a residual activity (DYRK3 (human); compound 1.0 µM) of 97%. It also gave a residual activity (DYRK2 (human); compound 0.01 µM) of 89%, a residual activity (DYRK2 (human); compound 0.1 µM) of 85% and a residual activity (DYRK2 (human); compound 1.0 µM) of 93%. It also gave a residual activity (ROCK2 (rat); compound 0.01 µM) of 90%, a residual activity (ROCK2 (rat); compound 1.0 µM) of 68% and a residual activity (BTK (human); compound 0.01 µM) of 91%. It also gave a residual activity (BTK (human); compound 0.1 µM) of 38%, a residual activity (BTK (human); compound 1.0 µM) of 21% and a residual activity (PAK6 (human); compound 0.01 µM) of 94%. It also gave a residual activity (PAK6 (human); compound 0.1 µM) of 101%, a residual activity (PAK6 (human); compound 1.0 µM) of 88% and a residual activity (PAK7 (human); compound 0.01 µM) of 95%. It also gave a residual activity (PAK7 (human); compound 0.1 µM) of 91%, a residual activity (PAK7 (human); compound 1.0 µM) of 72% and a residual activity (MARK3 (human); compound 0.01 µM) of 92%. It also gave a residual activity (MARK3 (human); compound 0.1 µM) of 73%, a residual activity (MARK3 (human); compound 1.0 µM) of 28% and a residual activity (EPHA2 (human); compound 0.01 µM) of 51%. For the same compound, the residual activity (EPHA2 (human); compound 0.1 µM) was 15%, the residual activity (EPHA2 (human); compound 1.0 µM) was 6% and the residual activity (EPHB3 (human); compound 0.01 µM) was 108%. The residual activity (EPHB3 (human); compound 0.1 µM) was 61%, the residual activity (EPHB3 (human); compound 1.0 µM) was 18% and the residual activity ([1]; compound 0.01 µM) was 98%. It also gave a residual activity ([1]; compound 0.1 µM) of 92%, a residual activity ([1]; compound 1.0 µM) of 91% and a residual activity (HIPK3 (human); compound 0.01 µM) of 80%. For the same compound, the residual activity (HIPK3 (human); compound 0.1 µM) was 86%, the residual activity (HIPK3 (human); compound 1.0 µM) was 74% and the residual activity (CSNK2A1 (human); compound 0.01 µM) was 98%. For the same compound, the residual activity (CSNK2A1 (human); compound 0.1 µM) was 100%, the residual activity (CSNK2A1 (human); compound 1.0 µM) was 100% and the residual activity (MST4 (human); compound 0.01 µM) was 100%. It also gave a residual activity (MST4 (human); compound 0.1 µM) of 95% and a residual activity (MST4 (human); compound 1.0 µM) of 78%.
